Test results: US12570675B2, “Boronic acid compounds” (LG CHEM, LTD., priority 2020, dated 2026)

Molecular target: Proteasome chymotrypsin-like activity (S26 protein from RPMI8226 cells) (Homo sapiens, UniProt P28074)
Type: biochemical
Conditions: S26 protein from RPMI8226 cell extract 2 ug/well, substrate 20 uM, 37° C., 90 minutes; read-out: Proteasome chymotrypsin-like activity inhibition IC50
Method in brief: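 Fluorogenic AMC substrates (20 uM final) report chymotrypsin-like (Suc-Leu-Leu-Val-Tyr-AMC) or caspase-like (Z-Leu-Leu-Glu-AMC) cleavage by RPMI8226-derived S26 protein, 2 ug/well, pH 8.0 Tris lysate.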

Proteasome chymotrypsin-like activity (S26 protein from RPMI8226 cells), sequence (P28074 60-263 limits assumed): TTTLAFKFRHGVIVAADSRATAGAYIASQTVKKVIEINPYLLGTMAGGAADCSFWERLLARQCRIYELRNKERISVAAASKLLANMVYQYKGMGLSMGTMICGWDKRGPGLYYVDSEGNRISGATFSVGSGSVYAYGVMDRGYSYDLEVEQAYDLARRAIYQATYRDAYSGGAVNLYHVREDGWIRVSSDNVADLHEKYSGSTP

| Compound | IC50 [nM] |
| --- | --- |
| COc1ccccc1C(=O)NCC1=NOC(C(=O)N[C@@H](CC(C)C)B(O)O)C1 (stereo partly drawn) [Example 103, ((1R)-1-(3-((2-methoxybenzamido)methyl)-4,5-dihydroisoxazol-5-carboxamido)-3-methylbutyl)boronic acid] | < 50 |
| CC(C)C[C@H](NC(=O)C1CC([C@H](CC(C)C)NC(=O)c2ccccc2)=NO1)B(O)O (stereo partly drawn) [Example 104, ((1R)-1-(3-((S)-1-benzamido-3-methylbutyl)-4,5-dihydroisoxazol-5-carboxamido)-3-methylbutyl)boronic acid] | < 100 |
| CC(C)C[C@H](NC(=O)C1CC([C@H](CC(C)C)NC(=O)Cc2ccccc2)=NO1)B(O)O (stereo partly drawn) [Example 105, ((1R)-3-methyl-1-(3-((S)-3-methyl-1-(2-phenylacetamido)butyl)-4,5-dihydroisoxazol-5-carboxamido)butyl)boronic acid] | < 100 |
| CC(C)C[C@H](NC(=O)C1(C(F)c2ccccc2)CC(CNC(=O)c2nccc3ccccc23)=NO1)B(O)O (stereo partly drawn) [Example 114, ((1R)-1-(5-(fluoro(phenyl)methyl)-3-((isoquinolin-1-carboxamido)methyl)-4,5-dihydroisoxazol-5-carboxamido)-3-methylbutyl)boronic acid] | < 10 |
| CC(C)C[C@H](NC(=O)C1(Cc2ccccc2)CC(CNC(=O)c2ccc(OC(C)C)c(C#N)c2)=NO1)B(O)O (stereo partly drawn) [Example 123, [(1R)-1-[[5-benzyl-3-[[(3-cyano-4-isopropoxy-benzoyl)amino]methyl]-4H-1,2-oxazol-5-carbonyl]amino]-3-methyl-butyl]boronic acid] | < 10 |
| CC(C)C[C@H](NC(=O)C1(Cn2cccn2)CC(CNC(=O)c2nccc3ccccc23)=NO1)B(O)O (stereo partly drawn) [Example 128, ((1R)-1-(5-((1H-pyrazol-1-yl)methyl)-3-((isoquinolin-1-carboxamido)methyl)-4,5-dihydroisoxazol-5-carboxamido)-3-methylbutyl)boronic acid] | < 10 |
| CC(C)C[C@H](NC(=O)C1(C(O)c2ccccc2)CC(CNC(=O)c2nccc3ccccc23)=NO1)B(O)O (stereo partly drawn) [Example 131, ((1R)-1-(5-(hydroxy(phenyl)methyl)-3-((isoquinolin-1-carboxamido)methyl)-4,5-dihydroisoxazol-5-carboxamido)-3-methylbutyl)boronic acid] | < 10 |
| CC(C)C[C@H](NC(=O)C1(C(C)c2ccccc2)CC(CNC(=O)c2nccc3ccccc23)=NO1)B(O)O (stereo partly drawn) [Example 136, ((1R)-1-(3-((isoquinolin-1-carboxamido)methyl)-5-(1-phenylethyl)-4,5-dihydroisoxazol-5-carboxamido)-3-methylbutyl)boronic acid] | < 10 |
| CC(C)C[C@H](NC(=O)C1(Cc2cscn2)CC(CNC(=O)c2nccc3ccccc23)=NO1)B(O)O (stereo partly drawn) [Example 137, ((1R)-1-(3-((isoquinolin-1-carboxamido)methyl)-5-(thiazol-4-ylmethyl)-4,5-dihydroisoxazol-5-carboxamido)-3-methylbutyl)boronic acid] | < 10 |
| CC(C)C[C@H](NC(=O)C1(Cc2ccccc2)CC(CNS(=O)(=O)c2cccc3cccnc23)=NO1)B(O)O (stereo partly drawn) [Example 144, ((1R)-1-(5-benzyl-3-((quinolin-8-sulfonamido)methyl)-4,5-dihydroisoxazol-5-carboxamido)-3-methylbutyl)boronic acid] | < 10 |
| CC(C)C[C@H](NC(=O)C1(Cc2ccccc2)CC(CNCc2cc(Cl)ccc2Cl)=NO1)B(O)O (stereo partly drawn) [Example 146, ((1R)-1-(5-benzyl-3-(((2,5-dichlorobenzyl)amino)methyl)-4,5-dihydroisoxazol-5-carboxamido)-3-methylbutyl)boronic acid] | < 25 |
| CC(C)C[C@H](NC(=O)C1(Cc2ccccc2)CC(CNCc2nccc3ccccc23)=NO1)B(O)O (stereo partly drawn) [Example 147, ((1R)-1-(5-benzyl-3-(((isoquinolin-1-ylmethyl)amino)methyl)-4,5-dihydroisoxazol-5-carboxamido)-3-methylbutyl)boronic acid] | < 25 |
| CC(C)C[C@H](NC(=O)C1(Cn2cccn2)CC(CNC(=O)c2cccn3ccnc23)=NO1)B(O)O (stereo partly drawn) [Example 149, ((1R)-1-(5-((1H-pyrazol-1-yl)methyl)-3-((imidazo[1,2-a]pyridin-8-carboxamido)methyl)-4,5-dihydroisoxazol-5-carboxamido)-3-methylbutyl)boronic acid] | < 10 |
| CC(C)C[C@H](NC(=O)C1(Cc2cscn2)CC(CNC(=O)c2cccn3ccnc23)=NO1)B(O)O (stereo partly drawn) [Example 150, ((1R)-1-(3-((imidazo[1,2-a]pyridin-8-carboxamido)methyl)-5-(thiazol-4-ylmethyl)-4,5-dihydroisoxazol-5-carboxamido)-3-methylbutyl)boronic acid] | < 10 |
| CC(C)C[C@H](NC(=O)C1(C(F)(F)c2ccccc2)CC(CNC(=O)c2nccc3ccccc23)=NO1)B(O)O (stereo partly drawn) [Example 155, ((1R)-1-(5-(difluoro(phenyl)methyl)-3-((isoquinolin-1-carboxamido)methyl)-4,5-dihydroisoxazol-5-carboxamido)-3-methylbutyl)boronic acid] | < 25 |

The next lines start with the values.

| IC50 [nM] | Compound |
| --- | --- |
| < 10 | CC(C)C[C@H](NC(=O)C1(Cc2ccccc2)CC(CNC(=O)c2cnccn2)=NO1)B(O)O (stereo partly drawn) [Example 106, ((1R)-1-(5-benzyl-3-((pyrazin-2-carboxamido)methyl)-4,5-dihydroisoxazol-5-carboxamido)-3-methylbutyl)boronic acid] |
| < 10 | CC(C)C[C@H](NC(=O)C1(Cc2ccccc2)CC(CNC(=O)C2CCCc3ccccc32)=NO1)B(O)O (stereo partly drawn) [Example 108, ((1R)-1-(5-benzyl-3-((1,2,3,4-tetrahydronaphthalen-1-carboxamido)methyl)-4,5-dihydroisoxazol-5-carboxamido)-3-methylbutyl)boronic acid] |
| < 10 | CC(C)C[C@H](NC(=O)C1(Cc2ccccc2)CC(CNC(=O)Cc2ccccc2)=NO1)B(O)O (stereo partly drawn) [Example 109, ((1R)-1-(5-benzyl-3-((2-phenylacetamido)methyl)-4,5-dihydroisoxazol-5-carboxamido)-3-methylbutyl)boronic acid] |
| < 25 | CC(C)C[C@H](NC(=O)C1(Cc2ccccc2)CC(CNC(=O)CCc2ccccc2)=NO1)B(O)O (stereo partly drawn) [Example 110, ((1R)-1-(5-benzyl-3-((3-phenylpropanamido)methyl)-4,5-dihydroisoxazol-5-carboxamido)-3-methylbutyl)boronic acid] |
| < 10 | Cc1ccc(F)cc1C(=O)NCC1=NOC(Cc2ccccc2)(C(=O)N[C@@H](CC(C)C)B(O)O)C1 (stereo partly drawn) [Example 111, ((1R)-1-(5-benzyl-3-((5-fluoro-2-methylbenzamido)methyl)-4,5-dihydroisoxazol-5-carboxamido)-3-methylbutyl)boronic acid] |
| < 25 | CC(C)C[C@H](NC(=O)C1(Cc2ccccc2)CC(CNC(=O)C2(c3ccccc3)CC2)=NO1)B(O)O (stereo partly drawn) [Example 118, ((1R)-1-(5-benzyl-3-((1-phenylcyclopropan-1-carboxamido)methyl)-4,5-dihydroisoxazol-5-carboxamido)-3-methylbutyl)boronic acid] |
| < 10 | Cc1nocc1C(=O)NCC1=NOC(Cc2ccccc2)(C(=O)N[C@@H](CC(C)C)B(O)O)C1 (stereo partly drawn) [Example 120, ((1R)-1-(5-benzyl-3-((3-methylisoxazol-4-carboxamido)methyl)-4,5-dihydroisoxazol-5-carboxamido)-3-methylbutyl)boronic acid] |
| < 10 | CC(C)C[C@H](NC(=O)C1(Cc2ccccc2)CC(CNC(=O)c2cc3ccccc3cn2)=NO1)B(O)O (stereo partly drawn) [Example 121, ((1R)-1-(5-benzyl-3-((isoquinolin-3-carboxamido)methyl)-4,5-dihydroisoxazol-5-carboxamido)-3-methylbutyl)boronic acid] |
| < 10 | CC(C)C[C@H](NC(=O)C1(Cc2ccccc2)CC(CNC(=O)c2cnc3ccccc3n2)=NO1)B(O)O (stereo partly drawn) [Example 122, ((1R)-1-(5-benzyl-3-((quinoxalin-2-carboxamido)methyl)-4,5-dihydroisoxazol-5-carboxamido)-3-methylbutyl)boronic acid] |
| < 10 | COc1cccc(CC2(C(=O)N[C@@H](CC(C)C)B(O)O)CC(CNC(=O)c3cccn4ccnc34)=NO2)c1 (stereo partly drawn) [Example 135, ((1R)-1-(3-((imidazo[1,2-a]pyridin-8-carboxamido)methyl)-5-(3-methoxybenzyl)-4,5-dihydroisoxazol-5-carboxamido)-3-methylbutyl)boronic acid] |
| < 10 | Cc1cn2cccc(C(=O)NCC3=NOC(Cc4ccccc4)(C(=O)N[C@@H](CC(C)C)B(O)O)C3)c2n1 (stereo partly drawn) [Example 139, ((1R)-1-(5-benzyl-3-((2-methylimidazo[1,2-a]pyridin-8-carboxamido)methyl)-4,5-dihydroisoxazol-5-carboxamido)-3-methylbutyl)boronic acid] |
| < 10 | Cc1nc2c(C(=O)NCC3=NOC(Cc4ccccc4)(C(=O)N[C@@H](CC(C)C)B(O)O)C3)cccn2c1Cl (stereo partly drawn) [Example 140, ((1R)-1-(5-benzyl-3-((3-chloro-2-methylimidazo[1,2-a]pyridin-8-carboxamido)methyl)-4,5-dihydroisoxazol-5-carboxamido)-3-methylbutyl)boronic acid] |
| < 10 | CC(C)C[C@H](NC(=O)C1(Cc2ccccc2)CC(CNC(=O)c2cccn3c(Cl)cnc23)=NO1)B(O)O (stereo partly drawn) [Example 142, ((1R)-1-(5-benzyl-3-((3-chloroimidazo[1,2-a]pyridin-8-carboxamido)methyl)-4,5-dihydroisoxazol-5-carboxamido)-3-methylbutyl)boronic acid] |
| < 25 | CC(C)C[C@H](NC(=O)C1(C(F)(F)c2ccccc2)CC(CNC(=O)c2cccn3ccnc23)=NO1)B(O)O (stereo partly drawn) [Example 156, ((1R)-1-(5-(difluoro(phenyl)methyl)-3-((imidazo[1,2-a]pyridin-8-carboxamido)methyl)-4,5-dihydroisoxazol-5-carboxamido)-3-methylbutyl)boronic acid] |
